Assay results reported in paper PMC6358866 (International Journal of Molecular Sciences, 2019).

Tests used:
[1] = test system: Escherichia coli ATCC 25922 biofilm; test: Activity against biofilms formed on polystyrene 96-well plates, 24 h exposure, resazurin; type: cell-based; settings: polystyrene plate, 24 h exposure in MHB II; for MBEC 50: lowest concentration reducing metabolic activity by at least 50 ± 5%
Experimental: (§1) Bacterial strains were obtained from the Polish Collection of Microorganisms (Polish Academy of Science, Wroclaw, Poland). […] The bacteria were cultured in a Mueller Hinton Broth II (MHB, Biocorp, Warsaw, Poland) overnight, under aerobic conditions at 37 °C. After incubation, the liquid cultures were centrifuged (2500 rpm for 10 min) and washed with phosphoric buffer (PBS, AppliChem, Darmstadt, Germany) three times and resuspended in fresh MHB II for inoculums appropriate for the performed assays.
(§2) Bacterial suspensions were added to 96-well plates (Kartell, Noviglio, Italy) at initial inoculums of ca. 5 × 10^8 CFU/mL and incubated under aerobic conditions with shaking (120 rpm) at 37 °C for 24 h. […] After exposure, the wells were washed three times with PBS and a solution of resazurin (Sigma Aldrich, St. Louis, MO, USA) in MHB II (0.01%) was added. This cell viability reagent is metabolized by bacterial dehydrogenases upon contact with living cells. As a result, the blue dye is reduced to a pink resorufin. After 1.5 h of incubation, the absorbance was measured at 570 and 600 nm using a microplate reader (Thermo Fisher Scientific, Waltham, MA, USA). […] The metabolic activity of bacteria in the samples was measured according to the following formula:
(§3) Metabolic activity (%) = (ΔAbs of sample − ΔAbs of negative control)/(ΔAbs of positive control − ΔAbs of negative control);
(§4) ΔAbs = absorbance at 570 nm − absorbance at 600 nm;
(§5) The presented results are the means of nine results obtained on three different days.

[2] = test system: Enterococcus faecalis ATCC 29212 biofilm; test: as above; type: cell-based; settings: polystyrene plate, 24 h exposure in MHB II; for MBEC 50: lowest concentration reducing metabolic activity by at least 50 ± 5%
Experimental: as §1, §2, §3, §4, §5

[3] = test system: Staphylococcus epidermidis ATCC 14990 biofilm; test: as above; type: cell-based; settings: for MBEC 50: lowest concentration reducing metabolic activity by at least 50 ± 5%; for MBEC 50 / MBEC 90: polystyrene plate, 24 h exposure in MHB II, resazurin; for MBEC 90: lowest concentration reducing metabolic activity by at least 90 ± 5%, mean of nine results
Experimental: as §1, §2, §3, §4, §5

[4] = test system: Pseudomonas aeruginosa ATCC 9027 biofilm; test: as above; type: cell-based; settings: for MBEC 50: lowest concentration reducing metabolic activity by at least 50 ± 5%; for MBEC 50 / MBEC 90: polystyrene plate, 24 h exposure in MHB II, resazurin; for MBEC 90: lowest concentration reducing metabolic activity by at least 90 ± 5%, mean of nine results
Experimental: as §1, §2, §3, §4, §5

[5] = test system: Staphylococus aureus ATCC 6538 biofilm; test: Activity against biofilms on 96-well plates after withdrawal of the antimicrobial (additional 24 h in MHB II); type: cell-based, Staphylococcus aureus; settings: after withdrawal and additional 24 h in MHB II; for MBEC II 50: lowest concentration giving permanent reduction of metabolic activity by at least 50 ± 5%; for MBEC II 90: lowest concentration giving permanent reduction of metabolic activity by at least 90 ± 5%
Experimental: (§6) Bacterial strains were obtained from the Polish Collection of Microorganisms (Polish Academy of Science, Wroclaw, Poland). Three Gram-positive and two Gram-negative strains linked with CL-related infections were chosen for the study (Staphylococus aureus ATCC 6538, Staphylococcus epidermidis ATCC 14990, Pseudomonas aeruginosa ATCC 9027, Escherichia coli ATCC 25922, and Enterococcus faecalis ATCC 29212). The bacteria were cultured in a Mueller Hinton Broth II (MHB, Biocorp, Warsaw, Poland) overnight, under aerobic conditions at 37 °C. […] Bacterial suspensions were added to 96-well plates (Kartell, Noviglio, Italy) at initial inoculums of ca. 5 × 10^8 CFU/mL and incubated under aerobic conditions with shaking (120 rpm) at 37 °C for 24 h. […] After exposure, the wells were washed three times with PBS and a solution of resazurin (Sigma Aldrich, St. […] This cell viability reagent is metabolized by bacterial dehydrogenases upon contact with living cells. As a result, the blue dye is reduced to a pink resorufin. After 1.5 h of incubation, the absorbance was measured at 570 and 600 nm using a microplate reader (Thermo Fisher Scientific, Waltham, MA, USA). […] The procedure was conducted as described in Section 4.3, with the difference that after exposure to antimicrobials, the wells were washed three times with PBS and pure MHB II was added. The samples were incubated for another 24 h (aerobic conditions, 120 rpm shaking, 37 °C). […] The absorbance was measured at the same wave lengths and metabolic activity was calculated according to the formula given in Section 4.3. The presented results are means of nine results obtained on three different days.

[6] = test system: Staphylococus aureus ATCC 6538 biofilm; test: Activity against biofilms formed on polystyrene 96-well plates, 24 h exposure, resazurin; type: cell-based, Staphylococcus aureus; settings: polystyrene plate, 24 h exposure in MHB II, resazurin; for MBEC 50: lowest concentration reducing metabolic activity by at least 50 ± 5%; for MBEC 90: lowest concentration reducing metabolic activity by at least 90 ± 5%, mean of nine results
Experimental: as §1, §2, §3, §4, §5

[7] = test system: Escherichia coli ATCC 25922 biofilm; test: Activity against biofilms on 96-well plates after withdrawal of the antimicrobial (additional 24 h in MHB II); type: cell-based; settings: after withdrawal and additional 24 h in MHB II
Experimental: as §6

[8] = test system: Enterococcus faecalis ATCC 29212 biofilm; test: as above; type: cell-based; settings: after withdrawal and additional 24 h in MHB II
Experimental: as §6

[9] = test system: Staphylococcus epidermidis ATCC 14990 biofilm; test: as above; type: cell-based; settings: after withdrawal and additional 24 h in MHB II; for MBEC II 50: lowest concentration giving permanent reduction of metabolic activity by at least 50 ± 5%; for MBEC II 90: lowest concentration giving permanent reduction of metabolic activity by at least 90 ± 5%
Experimental: as §6

[10] = test system: Pseudomonas aeruginosa ATCC 9027 biofilm; test: as above; type: cell-based; settings: for effect of pretreatment on biofilm after withdrawal: PA biofilm on polystyrene, concentrations lower than 32 mg/L, after withdrawal and additional 24 h
Experimental: as §6

[11] = test system: human cells (keratinocytes, erythrocytes); settings: cited from earlier work
Excerpt: PA was also the most difficult strain to eliminate from the surface of CL in the previous study, in which we investigated amphibian peptides and short lipopeptides containing hexadecanoic acid according to their potential application as CL solution additives. The results of performed antimicrobial assays were also very promising. However, due to high toxicity towards human keratinocytes in vitro, the ocular applications of lipopeptides with hexadecanoic acid are not worth further consideration. In contrast to those lipopeptides, the compound with two residues of decanoic aci ... || The excellent antimicrobial activity was previously reported for many lipopeptides. This, along with the relatively low production costs, has encouraged many research groups to study their antimicrobial activities and design molecules with optimal properties. C16-KK-NH2 is one of such extensively studied compounds. […] Other derivatives ...

[12] = lowest concentration reducing metabolic activity by at least 90 ± 5%, mean of nine results
[13] = lowest concentration giving permanent reduction of metabolic activity by at least 50 ± 5%
[14] = lowest concentration giving permanent reduction of metabolic activity by at least 90 ± 5%

Compound	MBEC 50 [1] [mg/L]	MBEC 50 [2] [mg/L]	MBEC 50 [3] [mg/L]	MBEC 90 [3] [mg/L]	MBEC 50 [4] [mg/L]	MBEC 90 [4] [mg/L]	MBEC II 50 [5] [µg/mL]	MBEC II 90 [5] [µg/mL]	MBEC 50 [6] [mg/L]	MBEC 90 [6] [mg/L]	MBEC II 50 [9] [µg/mL]	MBEC II 90 [9] [µg/mL]	effect of pretreatment on biofilm after withdrawal [10]	also measured
O=C(N[C@H](CO)[C@H](O)c1ccc([N+](=O)[O-])cc1)C(Cl)Cl [Chloramphenicol]	8	32	32	256	4	128	>256	>256	128	>256	>256	>256	significant promotion of biofilm growth	MBEC 90 [1, 12]: 16 mg/L; MBEC 90 [2, 12]: >256 mg/L; metabolic activity of bacteria ([3]; SE biofilm on polystyrene, 24 h exposure, 64 mg/L): ~25%; reduction of metabolic activities ([4]; PA biofilm on polystyrene, 24 h exposure, 32–64 mg/L): ~70%; MBEC II 50 [7, 13]: >256 µg/mL; MBEC II 90 [7, 14]: >256 µg/mL; MBEC II 50 [8, 13]: >256 µg/mL; MBEC II 90 [8, 14]: >256 µg/mL; MBEC II 50 ([10]; lowest concentration giving permanent reduction of metabolic activity by at least 50 ± 5%, after withdrawal and additional 24 h in MHB II): 256 µg/mL; MBEC II 90 ([10]; lowest concentration giving permanent reduction of metabolic activity by at least 90 ± 5%, after withdrawal and additional 24 h in MHB II): >256 µg/mL
C16-KK-NH2														toxicity towards human cells [11]: high toxicity
neomycin (sulfate)	8	64	≤1	16	8	64	64	64	4	64	8	16	enhanced metabolism of bacteria in comparison to the positive control	reduction of metabolic activity ([4]; PA biofilm on polystyrene, 24 h exposure, 32 mg/L): 75%; concentration giving a permanent antibiofilm effect ([9]; SE biofilm on polystyrene): 16 mg/L
